Article PMC6540222, “Small Molecule Inhibitors of KDM5 Histone Demethylases Increase the Radiosensitivity of Breast Cancer Cells Overexpressing JARID1B” (Molecules, 2019)
Where two headings read alike, the source gives them in different places.

Tests used:
[1] = target: KDM5D (Homo sapiens, UniProt Q9BY66); experiment: Surface Plasmon Resonance (SPR), immobilized KDM5D; format: binding; details: KDM5D immobilized on COOH5 sensorchip, buffer HSP-1%D, analyte 6.25-100 μM
Description: Surface Plasmon Resonance (SPR) experiments were carried out using a SensiQ Pioneer system (ICx Nomadics, Stillwater, OK, USA). Immobilization of ligand (KDM5D) was carried out essentially as in Ilari et al.. The sensor chip (COOH5) was activated chemically by a 100 µL injection of a 1:1 mixture of N-ethyl-N′-(3-([…])carbodiimide (200 mM) and N-hydroxysuccinimide (50 mM) at a flow rate of 5 µL/min. KDM5D was immobilized on activated sensor chips via amine coupling. The immobilization was carried out in 20 mM sodium acetate at pH 4.5; the remaining unreacted groups were blocked by injecting 1 M ethanolamine hydrochloride (100 µL). The amount of immobilized KDM5D was detected by mass concentration-dependent changes in the refractive index on the sensor chip surface and corresponded to about 11,000 resonance units (RU); an empty flow cell was used as a reference. Analytes, i.e., inhibitors RS3152, RS3183, RS3195, RS4995 and RS5033 were dissolved in DMSO at a concentration of 10 mM and diluted in HSP buffer (10 mM Hepes pH 7.4, 150 mM NaCl + 0.005% surfactant P20) to yield 100 μM inhibitor concentration in HSP + 1% DMSO (HSP-1%D). The analytes were automatically diluted in HSP-1%D and injected on the sensorchip for 120 s at a constant flow (30 µL/min); analyte concentrations were: (1) 6.25 μM; (2) 12.5 μM; (3) 25 μM; (4) 50 μM; (5) 100 μM. The increase in RU relative to baseline indicates complex formation; the plateau region represents the steady-state phase of the interaction, whereas the decrease in RU after 120 s represents dissociation of analytes from immobilized KDM5 after injection of buffer HSP-1%D. The sensorgrams were analysed using the SensiQ Qdat 4.0 program and using simple Scatchard plots.

[2] = test system: H3K4me3 levels in MCF-7 cells; experiment: Western blotting of H3K4me3 levels in bulk chromatin; format: cell-based, human; details: MCF-7 bulk chromatin, 1 μM, 10 μM and 30 μM, 24 h, vs DMSO
Description: (§1) Histone isolation was performed according to acid extraction of histones protocol of Shechter and colleagues. Histone concentration was determined by running 5 μL of samples and known concentrations of commercially available purified calf thymus histones (from Sigma Aldrich Cat. #000000010223565001) on a SDS-PAGE gel. The gel is stained with Coomassie blue G 250 (BIO-RAD Cat. #161-0786) for 1 hour at room temperature and then destained in distilled water. The gel image is acquired with ChemiDoc XRS+ Imaging System (Bio-Rad, Hercules, CA, USA) and the volumes of bands of the samples are compared to standard concentrations of calf thymus histone.
Proteins were resolved on a 12% (histones) or 5% (JARID1B) denaturing polyacrylamide gel, using either 4 μg of histone preparation or 40 μg of cell lysate. After electrophoresis, proteins were transferred on a nitrocellulose membrane (Protran™ […] NC, # 10600002, GE Healthcare (Amersham™), Chicago, IL, USA) via wet transfer method using a Bio-Rad tank. Transfer efficiency was verified via ponceau staining (#P7767, Sigma-Aldrich). Filters were blocked with either milk (#70166, Sigma-Aldrich) or bovine serum albumin (#A3069, Sigma-Aldrich) and then hybridized over night at 4 °C in gentle rotation with the following antibodies: rabbit anti-H3K4me3 (1:1000, #39915, Active Motif, RRID:AB_2687512); rabbit-anti-H3K27me3 (1:1000, #9733, Cell Signaling Technology, RRID:AB_2616029); rabbit-anti- H3K9pan-methylated (1:1000, #4473, RRID:AB_10544693); rabbit-anti-H3 ([…], Cat#1791, ABCAM, RRID:AB_302613); rabbit anti-H2AX (1:1000, Cat#7631, Cell Signaling Technology, RRID:AB_10860771), rabbit anti-Phospho-H2AX (1:1000, Cat#9718, Cell Signaling Technology, RRID:AB_2118009), rabbit anti-JARID1B (1:50, Cell Signaling Technology, Cat#3273 RRID: AB_1264191). Goat-anti-Rabbit Horseradish Peroxidase conjugated (1:10,000, #31460, Thermo Fisher Scientific, Waltham, MA, USA RRID:AB_228341) was used as secondary antibody for 1 hour hybridization at room temperature. Blots were scanned and analyzed with a ChemiDoc XRS+ Imaging System (Bio-Rad). The volumes of each band of protein was acquired using Bio-Rad’s ImageLab software by means of volume tools using global quantification. The signal for each protein was normalized to the housekeeping protein and ratios with average control values were determined. For histones as loading control was used either total histone H3 detected by a specific antibody or histone H1 levels by staining the upper part of the gel properly cut before protein transfer on nitrocellulose membrane.

[3] = test system: MCF-7 cells; experiment: RNA-seq differential gene expression; format: cell-based, human; details: MCF-7 treated with RS3195 10 μM
[4] = test system: MCF-7 cells; experiment: COMET assay (DNA damage); format: cell-based, human; details: MCF-7, sham-irradiated, 3 μM
Description: To test if the cytotoxic effects of KDM5 inhibitors on MCF-7 cells were related to an increase of DNA damage accumulation, we collected cells treated with the three KDM5 inhibitors or DMSO-treated control cells after one hour from irradiation with 3 Gy of ionizing radiation (or sham-irradiation). We then performed COMET assays to assess DNA damage.
The COMET assay was performed using the OxiSelect™ 96-Well Comet Assay Kit (Cell Biolabs, Inc., San Diego, CA, USA) following the manufacturer’s instruction manual (https://www.cellbiolabs.com/sites/default/files/STA-355-comet-assay-kit.pdf).

[5] = test system: KDM5 enzymes; details: cited from earlier work
[6] = target: KDM5 enzymes; experiment: Enzymatic inhibition assay (Epigenase JARID Demethylase Activity/Inhibition Assay Kit, fluorometric); format: biochemical; details: in vitro, toward KDM5 enzymes; This work
Description: Inhibition by RS5033 (IC50) was determined by the Epigenase™ JARID Demethylase Activity/Inhibition Assay Kit (Fluorometric) (#P-3083-48 Epigentek, Farmingdale, NY, USA) which is a complete set of optimized reagents, designed for an easy and fast fluorometric measurement of JARID activity or inhibition. The antibody-based, immune-specific method directly detects JARID-converted demethylated products, rather than by- products, in a 96 stripwell microplate format.

[7] = test system: pan-methyl-H3K9 levels in MCF-7 cells; experiment: Western blotting of pan-methyl-H3K9 levels; format: cell-based, human; details: MCF-7, 24 h, three concentrations (1, 10, 30 μM)
Description: as §1
Proteins were resolved on a 12% (histones) or 5% (JARID1B) denaturing polyacrylamide gel, using either 4 μg of histone preparation or 40 μg of cell lysate. […] Blots were scanned and analyzed with a ChemiDoc XRS+ Imaging System (Bio-Rad). The volumes of each band of protein was acquired using Bio-Rad’s ImageLab software by means of volume tools using global quantification. The signal for each protein was normalized to the housekeeping protein and ratios with average control values were determined. For histones as loading control was used either total histone H3 detected by a specific antibody or histone H1 levels by staining the upper part of the gel properly cut before protein transfer on nitrocellulose membrane.

KDM5D, sequence (Q9BY66 whole entry): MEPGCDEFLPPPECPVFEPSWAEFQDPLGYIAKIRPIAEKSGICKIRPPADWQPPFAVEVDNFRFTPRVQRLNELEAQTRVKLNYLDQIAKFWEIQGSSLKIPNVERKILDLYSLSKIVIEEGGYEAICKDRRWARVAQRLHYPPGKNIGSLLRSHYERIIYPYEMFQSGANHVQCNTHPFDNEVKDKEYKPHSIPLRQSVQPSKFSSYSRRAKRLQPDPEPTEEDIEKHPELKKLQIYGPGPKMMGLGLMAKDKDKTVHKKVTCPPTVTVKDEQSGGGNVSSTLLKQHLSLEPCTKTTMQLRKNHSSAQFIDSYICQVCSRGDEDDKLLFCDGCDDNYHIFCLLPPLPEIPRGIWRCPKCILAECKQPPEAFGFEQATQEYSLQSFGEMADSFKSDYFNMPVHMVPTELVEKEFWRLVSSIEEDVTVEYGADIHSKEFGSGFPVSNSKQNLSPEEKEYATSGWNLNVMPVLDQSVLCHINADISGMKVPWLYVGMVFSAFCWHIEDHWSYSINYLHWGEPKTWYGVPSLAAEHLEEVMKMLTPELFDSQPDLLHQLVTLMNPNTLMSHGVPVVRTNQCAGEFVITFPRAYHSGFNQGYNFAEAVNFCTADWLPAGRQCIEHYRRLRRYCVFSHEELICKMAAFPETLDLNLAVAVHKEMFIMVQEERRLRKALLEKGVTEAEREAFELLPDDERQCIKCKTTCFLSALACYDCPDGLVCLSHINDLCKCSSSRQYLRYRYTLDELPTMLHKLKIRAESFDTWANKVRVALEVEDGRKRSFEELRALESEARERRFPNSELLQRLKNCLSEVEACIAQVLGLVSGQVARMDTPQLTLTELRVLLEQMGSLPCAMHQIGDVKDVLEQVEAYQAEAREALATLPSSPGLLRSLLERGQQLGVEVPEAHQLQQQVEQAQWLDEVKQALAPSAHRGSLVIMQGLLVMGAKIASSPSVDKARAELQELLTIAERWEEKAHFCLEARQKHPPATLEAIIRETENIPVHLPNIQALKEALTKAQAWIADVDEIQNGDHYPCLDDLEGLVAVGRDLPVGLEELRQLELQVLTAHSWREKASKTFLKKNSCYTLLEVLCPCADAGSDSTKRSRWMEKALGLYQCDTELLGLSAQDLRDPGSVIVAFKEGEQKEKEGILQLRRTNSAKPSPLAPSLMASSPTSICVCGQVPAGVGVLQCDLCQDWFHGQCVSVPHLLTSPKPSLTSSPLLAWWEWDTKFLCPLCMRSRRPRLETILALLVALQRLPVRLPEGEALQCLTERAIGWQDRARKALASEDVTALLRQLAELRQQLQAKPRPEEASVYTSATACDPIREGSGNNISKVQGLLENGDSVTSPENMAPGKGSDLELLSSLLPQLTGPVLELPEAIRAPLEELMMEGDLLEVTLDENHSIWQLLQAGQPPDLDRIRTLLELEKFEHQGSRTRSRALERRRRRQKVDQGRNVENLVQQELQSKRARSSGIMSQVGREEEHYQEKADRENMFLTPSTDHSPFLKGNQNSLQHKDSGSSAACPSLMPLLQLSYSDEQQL

SMILES: CCOC(=O)c1cccn1C(=O)c1cccc(NS(=O)(=O)c2ccc(OC)cc2)c1 [RS3195]
- Kd [1]: 38 ± 2 µM
- H3K4me3 levels [2]: slight increase
- log2FoldChange AHRR ([3]; gene AHRR): 2.438
- log2FoldChange CYP1A1 ([3]; gene CYP1A1): 7.446
- log2FoldChange CYP1B1 ([3]; gene CYP1B1): 3.42
- log2FoldChange RPS3A ([3]; gene RPS3A): 2.088
- log2FoldChange TXNRD1 ([3]; gene TXNRD1): 1.608
- cells with comet tail, sham-irradiated (intrinsic genotoxicity) [4]: strong effect
- inhibition of KDM5B and KDM5D activity in vitro [5]: selectively inhibit
- IC50 ([5]; in vitro, toward KDM5 enzymes, ref Mannironi et al. [36]): 2 µM

SMILES: CCOC(=O)c1ccccc1C(=O)c1cccc(NS(=O)(=O)c2ccc(OC)cc2)c1 [RS5033]
- Kd [1]: 32 ± 2 µM
- IC50 [6]: 1 µM
- H3K4me3 levels [2]: more remarkable and significant increase of H3K4me3
- H3K4me3 levels ([2]; listed as RS 5033): strong and significant increase
- H3K9me3 (pan-methyl-H3K9) levels [7]: not affected
